Data reported in patent US20130123201A1, “MODULATION OF CYTOKINE-INDUCED CHRONIC INFLAMMATORY RESPONSES” (UNIVERSITY OF MANITOBA, priority 2010, published 2013).
Where “and” joins values, the source holds several entries; their conditions need not be identical. Identical values can stand only once.

Experiments:
[1] = test system: Human macrophage-like THP-1 cells; experiment: Kinome profiling with peptide arrays of kinase phosphorylation targets; assay type: cell-based; conditions: cytokine 20 ng/mL, 15 min, relative to un-stimulated control cells
Experimental: Kinome profiling: Human monocytic THP-1 cells were differentiated to plastic-adherent macrophage-like cells by treatment with PMA as described above, the cells were rested for 24 hr and then stimulated with either IL-32 (20 ng/mL) or IL-17 (20 ng/mL) for 15 min.
Subsequently, cellular lysates were prepared in lysis buffer (containing 20 mM Tris-HCl pH 7.5, 150 mM NaCl, 1 mM EDTA, 1 mM EGTA, 1 mM sodium fluoride, 1 mM sodium orthovanadate, 2.5 mM sodium pyrophosphate, protease inhibitor cocktail (Sigma-Aldrich) and 1% (v/v) Triton X-100, as taught by Jalal et al. (2009, Genome to kinome: species-specific peptide arrays for kinome analysis. Sci. Signal 2:11). Peptide arrays representing phosphorylation targets of kinase activity were incubated with the cellular lysates for quantifying global kinase activity following the methods disclosed by Jalal et al. (2009). The trends of protein phosphorylation events upon stimulation with IL-32 and IL-17 were comprehensively analysed after normalization and background correction of signal strength following the methods disclosed by Jalal et al. (2009). The phosphorylations of the peptides on the array were quantitated in the cytokine-treated cells relative to the un-stimulated control cells.
Kinome profiling: Human macrophage-like THP-1 cells were differentiated to plastic-adherent macrophage-like cells by treatment with PMA as described above, after which the cells were rested for 24 hr and then stimulated with either IL-32 (20 ng/mL) or IL-17 (20 ng/mL) for 15 min. Subsequently, cellular lysates were prepared in lysis buffer (containing 20mM Tris-HCl pH 7.5, 150 mM NaCl, 1 mM EDTA, 1 mM EGTA, 1 mM sodium fluoride, 1 mM sodium orthovanadate, 2.5 mM sodium pyrophosphate, protease inhibitor cocktail (Sigma-Aldrich Canada Inc.) and 1% (v/v) Triton X-100, as taught by Mookherjee et al. (2006). Peptide arrays representing phosphorylation targets of kinase activity were incubated with the cellular lysates for quantifying global kinase activity as taught by Jalal et al. (2009, Genome to kinome: species-specific peptide arrays for kinome analysis. Sci. Signal 2:11). The trends of protein phosphorylation events upon stimulation with IL-32 and IL-17 were comprehensively analysed after normalization and background correction of signal strength as taught by Jalal et al. (2009). The phosphorylations of the peptides on the array were quantitated in the cytokine-treated cells relative to the un-stimulated control cells.
Differential phosphorylation events in THP-1 cells stimulated by IL-32 and IL-17: THP-1 cells were stimulated with either IL-17 (20 ng/ml) or IL-32 (20 ng/ml) for 15 min. The cellular lysates were incubated with peptide arrays representing phosphorylation targets of kinase activity for quantifying global kinase activity as previously described. The phosphorylation of the peptides on the array were quantitated in the cytokine-treated cells relative to the un-stimulated control cells after normalization and background correction of signal strength taught by Jalal et al. (2009).

[2] = test system: phospho-p300 (Ser1834); experiment: Immunoblot with phospho-p300 (Ser1834) antibody; assay type: cell-based, human; conditions: within 15 min, compared to un-stimulated cells
Experimental: (§1) Immunoblots: Cell lysates were prepared in lysis buffer containing 20 mM Tris-HCl pH 7.5, 150 mM NaCl, 1 mM EDTA, 1 mM EGTA, 1 mM sodium fluoride, 1 mM sodium orthovanadate, 2.5 mM sodium pyrophosphate, protease inhibitor cocktail (Sigma-Aldrich) and 1% (v/v) Triton X-100. The lysates were electrophoretically resolved on a 4-12% NuPAGE® Bis-Tris gels (Invitrogen Corporation, Burlington, ON, Canda), followed by transfer to nitrocellulose membranes (Millipore, Canada). The membranes were subsequently probed with either phospho-p300 (Ser1834) polyclonal antibody, monoclonal antibody against phospho-DAPK (Ser308) or monoclonal antibody to glyceraldehyde-3-phosphate dehydrogenase (GAPDH) in TBST (20 mM Tris pH 7.5, 150 mM NaCl, 0.1% Tween 20) containing 5% skimmed milk powder. Affinity purified HRP-linked horse anti-mouse or goat anti-rabbit antibodies were used for detection as required. The membranes were development with Amersham ECL detection system (GE Healthcare, Baie d'Urfe QC, Canada) according to the manufacturer's instructions.
(§2) Immunoblots: Cell lysates were prepared in lysis buffer containing 20 mM Tris-HCl pH 7.5, 150 mM NaCl, 1 mM EDTA, 1 mM EGTA, 1 mM sodium fluoride, 1 mM sodium orthovanadate, 2.5 mM sodium pyrophosphate, protease inhibitor cocktail (Sigma-Aldrich Canada Inc.) and 1% (v/v) Triton X-100. […]

[3] = test system: phospho-DAPK (Ser308); experiment: Immunoblot with phospho-DAPK (Ser308) antibody; assay type: cell-based, human; conditions: within 15 min, compared to un-stimulated cells
Experimental: as §1, §2

IL-17: Recombinant human cytokine IL-17A/F from eBioscience, used as stimulant
Relative Fold change in phosphorylation, APE1 (P27695) S289 [1]: 1.52 fold and 1.28 fold
Relative Fold change in phosphorylation, Akt1 (P31749) S124/9 [1]: −3.27 fold
Relative Fold change in phosphorylation, CCR5 (P51681) S336/7 [1]: −2.62 fold
Relative Fold change in phosphorylation, CTNNB1 (P35222) T41/45 [1]: −4.12 fold
Relative Fold change in phosphorylation, DAPK1 (P53355) S308 [1]: 2.19 fold and 1.45 fold
Relative Fold change in phosphorylation, Daxx (Q9UER7) S668/71 [1]: −3.45 fold
Relative Fold change in phosphorylation, Grb10 (Q13322) S150 [1]: −1.86 fold
Relative Fold change in phosphorylation, Kit (P10721) Y721 [1]: −1.75 fold
Relative Fold change in phosphorylation, NFAT4 (Q12968) S163/5 [1]: −2.22 fold
Relative Fold change in phosphorylation, PKACa (P17612) S338 [1]: −1.64 fold
Relative Fold change in phosphorylation, STAT6 (P42226) Y641 [1]: −1.94 fold
Relative Fold change in phosphorylation, Smad3 (P84022) S422/3/5 [1]: −2.37 fold
Relative Fold change in phosphorylation, TAK1 (O43318) T184 [1]: −2.01 fold
Relative Fold change in phosphorylation, axin-1 (O15169) S486 [1]: −3.73 fold
Relative Fold change in phosphorylation, p53 (P04637) S6/9 [1]: −2.43 fold
Relative Fold change in phosphorylation, p300 (Q09472) S1834 [1]: 1.92 fold and 1.71 fold
Phosphorylation of p300 (Ser1834) by immunoblot [2]: increased phosphorylation
Phosphorylation of DAPK (Ser308) by immunoblot [3]: increased phosphorylation
